Source: PMC4321733 (Bioorganic & medicinal chemistry letters, 2014)

Molecular target: PDE10A (Homo sapiens, UniProt Q9Y233)
Experiment: scintillation proximity assay
Conditions: ratio of IC50 values

Chain of PDE10A (Q9Y233 whole entry): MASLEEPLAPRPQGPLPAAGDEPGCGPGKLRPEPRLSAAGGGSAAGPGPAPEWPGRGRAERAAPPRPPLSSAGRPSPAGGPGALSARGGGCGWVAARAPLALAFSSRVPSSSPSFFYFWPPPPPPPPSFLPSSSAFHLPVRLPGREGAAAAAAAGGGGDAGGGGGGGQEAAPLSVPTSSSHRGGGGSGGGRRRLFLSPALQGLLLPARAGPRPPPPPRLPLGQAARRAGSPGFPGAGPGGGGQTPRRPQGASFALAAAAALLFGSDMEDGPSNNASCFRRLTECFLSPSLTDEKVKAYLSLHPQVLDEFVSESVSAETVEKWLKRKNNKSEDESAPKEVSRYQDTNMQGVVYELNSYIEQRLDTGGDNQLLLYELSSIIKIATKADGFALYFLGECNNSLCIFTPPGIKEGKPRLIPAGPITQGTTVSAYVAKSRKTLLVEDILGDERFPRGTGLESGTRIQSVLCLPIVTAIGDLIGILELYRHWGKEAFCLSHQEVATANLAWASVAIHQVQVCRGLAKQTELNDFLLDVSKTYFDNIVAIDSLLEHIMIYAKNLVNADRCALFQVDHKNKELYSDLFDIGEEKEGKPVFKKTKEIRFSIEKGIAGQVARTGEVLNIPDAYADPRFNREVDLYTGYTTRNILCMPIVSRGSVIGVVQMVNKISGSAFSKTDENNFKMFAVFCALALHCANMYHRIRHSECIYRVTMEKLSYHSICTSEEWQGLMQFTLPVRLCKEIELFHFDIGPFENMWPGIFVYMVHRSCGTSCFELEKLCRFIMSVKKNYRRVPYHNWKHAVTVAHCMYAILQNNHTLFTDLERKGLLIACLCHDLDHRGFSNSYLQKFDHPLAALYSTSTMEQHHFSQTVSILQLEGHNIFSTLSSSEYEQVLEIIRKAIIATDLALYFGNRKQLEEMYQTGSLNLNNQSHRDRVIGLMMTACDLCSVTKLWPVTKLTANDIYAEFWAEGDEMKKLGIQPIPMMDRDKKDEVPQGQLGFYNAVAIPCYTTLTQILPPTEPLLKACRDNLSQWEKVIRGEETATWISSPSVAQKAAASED

| in vitro selectivity for PDE10A over PDE3A/3B, PDE4A/4B | Structure (SMILES) |
| --- | --- |
| > 1,000 fold | COc1cc2nncc(-c3cnc(N4CCC(O)(c5cccnc5)CC4)c(C)c3)c2cc1OC [Compound 26a] |
| > 1,000 fold | COc1cc2nncc(-c3cnc(N4CCC(O)(c5ccc(F)nc5)CC4)c(C)c3)c2cc1OC [Compound 26b] |
| > 1,000 fold | Cn1c(C(=O)c2ccc(Oc3ncccc3-c3cccnc3)cc2)nc2ccccc21 [Compound 33c] |
